One experiment addresses 5HT2A (Homo sapiens, UniProt P28223). Description: FLIPR calcium assay for 5HT2A target activity (transfected HEK293 cells). It is filed as cell-based.
The target of another experiment is T1, GlyT2 (Rattus norvegicus, UniProt P58295).
T1 construct: expressed in transfected cells
T1 sequence (P58295 1-799): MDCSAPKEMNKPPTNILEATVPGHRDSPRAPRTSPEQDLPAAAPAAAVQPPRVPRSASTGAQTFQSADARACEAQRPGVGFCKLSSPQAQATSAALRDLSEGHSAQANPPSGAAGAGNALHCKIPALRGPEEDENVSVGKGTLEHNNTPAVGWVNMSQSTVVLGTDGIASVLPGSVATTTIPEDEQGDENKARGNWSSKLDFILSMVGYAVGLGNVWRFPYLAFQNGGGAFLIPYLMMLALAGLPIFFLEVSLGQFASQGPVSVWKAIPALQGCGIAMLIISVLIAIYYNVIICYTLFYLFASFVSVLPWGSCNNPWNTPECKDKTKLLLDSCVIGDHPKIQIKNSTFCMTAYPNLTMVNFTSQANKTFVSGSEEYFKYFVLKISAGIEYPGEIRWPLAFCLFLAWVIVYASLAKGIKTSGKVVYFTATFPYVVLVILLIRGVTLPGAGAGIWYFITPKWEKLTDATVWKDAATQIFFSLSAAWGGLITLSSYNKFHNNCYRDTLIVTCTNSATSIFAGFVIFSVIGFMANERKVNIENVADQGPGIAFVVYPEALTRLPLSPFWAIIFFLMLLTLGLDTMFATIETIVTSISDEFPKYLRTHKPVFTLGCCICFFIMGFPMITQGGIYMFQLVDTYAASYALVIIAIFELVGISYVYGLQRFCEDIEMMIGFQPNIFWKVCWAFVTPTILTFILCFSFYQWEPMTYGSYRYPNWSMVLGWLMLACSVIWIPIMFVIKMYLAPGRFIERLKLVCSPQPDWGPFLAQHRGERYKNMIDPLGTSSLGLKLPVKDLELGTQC
Description: FLIPR membrane potential assay for GlyT2 target activity (T-rex-293-rGlyT2 cells). It is filed as cell-based. As to conditions: for inhibition at 10 µM: read-out: GlyT2 % inhibition. Here is the method: GlyT2 (Glycine transporter type 2) is an electrogenic carrier associated with Na^+/Cl^− ion transportation, primarily distributed around the spinal cord part, and has an important role in the transfer of a pain signal in the spinal cord.
In order to identify the fact that the novel compound of the present invention has GlyT2 targeting activity, a membrane potential assay was performed. FLIPR Membrane Potential Assay is used to measure ion channel modulation caused by an increase or decrease in fluorescence signal due to variations of cellular membrane potential.
First, pcDNA4/TO vector encoding GlyT2 of the rat in HEK293 cell was transfected to prepare a stable recombinant cell line, i.e., T-rex-293-rGlyT2. A […] (Greiner #655090) coated with poly-D-lysine was prepared, and the above recombinant cells (T-rex-293-rGlyT2) were seeded at 3.2×10^4/well therein using a medium containing 15 μg/ml of tetracycline. After this, incubation was conducted at 37° C. for 48 hours under 5% CO2 conditions to express GlyT2. 10 ml of assay buffer (1×HBSS, 20 mM HEPES, pH 7.4) was added to a blue dye solution and sufficiently dissolved therein to prepare a membrane potential dye solution. After removing the medium from the well showing GlyT2 expression, the membrane potential dye solution was added to the well in an amount of 100 μl/well and incubated for 20 minutes.
According to the FLIPR Membrane Potential Assay kit's protocol, SoftMax Pro Software of FlexStation 3 software (Molecular Devices, US) was set up. An extent of GlyT2 expression was determined such that the extent of cellular membrane depolarization relative to an administered amount of glycine during glycine treatment is indicated in relative fluorescence units (RFU), and RFU (Max-Min) is calculated by subtracting the minimum value from the maximum value of RFU. After firstly treating 10 uM of the novel compound according to the present invention, glycine was treated and RFU (Max-Min) for glycine administration was determined. Then, with the determined result, the extent of depolarization inhibition (% inhibition) was assessed for each compound, compared to a positive control.
The positive control used herein was ORG25543 (500 nM) having strong inhibitory efficacy specific to GlyT2.
For GlyT2 inhibitory efficacy, the efficacy of the compound ORG25543 (500 nM) was defined as 100%. Similarly, for 5HT2A inhibitory efficacy, the efficacy of MDL11939 (100 nM) was defined as 100%. Therefore, the target inhibitory efficacy of each compound was indicated in a relative value compared to the above defined efficacy.

[1] abbreviates: HEK293, 10 uM compound, then serotonin, relative to MDL11939 (100 nM) defined as 100%, read-out: 5HT2A % inhibition.
Setting [2] is: 10 uM compound, then glycine, relative to ORG25543 (500 nM) defined as 100%.
The mark [3] stands for this setting: HEK293, read-out: 5HT2A % inhibition.

Molecules are shown by their SMILES. Where two headings read alike, the source gives them in different places.

Sequence of 5HT2A (P28223 whole entry, species assumed): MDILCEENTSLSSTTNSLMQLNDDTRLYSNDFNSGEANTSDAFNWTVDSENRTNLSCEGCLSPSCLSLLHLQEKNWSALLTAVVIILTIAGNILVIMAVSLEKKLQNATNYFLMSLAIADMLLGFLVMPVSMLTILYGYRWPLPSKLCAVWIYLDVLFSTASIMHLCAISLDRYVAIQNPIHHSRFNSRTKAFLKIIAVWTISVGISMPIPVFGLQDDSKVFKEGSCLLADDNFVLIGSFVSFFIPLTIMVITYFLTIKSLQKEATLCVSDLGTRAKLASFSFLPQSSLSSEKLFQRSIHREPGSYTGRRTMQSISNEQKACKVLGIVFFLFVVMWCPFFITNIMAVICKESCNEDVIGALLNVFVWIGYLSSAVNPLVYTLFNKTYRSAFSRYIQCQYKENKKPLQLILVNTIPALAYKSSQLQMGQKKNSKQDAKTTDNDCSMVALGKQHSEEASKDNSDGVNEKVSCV

As for `COc1cc(C(=O)N[C@H]2CN3CCC2CC3)cc(OC)c1OCc1ccccc1` [VVZ-003], the figures for the inhibition at 10 µM at 5HT2A (setting [1]) and at GlyT2 (setting [2]) were 31.6% and 78.2%, respectively.

For `COc1cc(C(=O)NCCN2CCOCC2)cc(OC)c1OCc1ccccc1` [VVZ-006], the inhibition (usually the relative decrease from the control value, in per cent) at 10 µM at 5HT2A (setting [3]) was 89.8%; on GlyT2 (setting [2]), 48.9%.

Regarding `COc1cc(C(=O)NCC2CCCCN2C)cc(OC)c1OCc1ccccc1` (stereo not shown) [VVZ-009], the inhibition at 10 µM was found to be 90.4% on 5HT2A (setting [1]) and 117% on GlyT2 (setting [2]).

On to `COc1cc(C(=O)NCC(c2ccccc2)N(C)C)cc(OC)c1OCc1ccccc1` (stereo not shown) [VVZ-010], for which, on 5HT2A, the 5HT2A % inhibition stood at 108.1%. At GlyT2, the GlyT2 % inhibition came to 102.5%.

Take `COc1cc(C(=O)N[C@@H]2CCN(Cc3ccccc3)C2)cc(OC)c1OCc1ccccc1` [VVZ-011]: the values for the inhibition at 10 µM at 5HT2A (setting [1]) and on GlyT2 (setting [2]) were 56.2% and 88.8%, respectively.

As to `CCN1CCC[C@@H]1CNC(=O)c1cc(OC)c(OCc2ccccc2)c(OC)c1` [VVZ-012], the inhibition at 10 µM on 5HT2A (setting [1]) worked out at 76.1%; on GlyT2 (setting [2]) it was 118%.

Consider `COc1cc(C(=O)NC2CCN(Cc3ccccc3)C2)cc(OC)c1OCc1ccccc1` (stereo not shown) [VVZ-013], for which the inhibition at 10 µM on 5HT2A (setting [1]) was found to be 48.5%; at GlyT2 (setting [2]) it was 72.9%.

In the case of `CCN1CCC[C@H]1CNC(=O)c1cc(OC)c(OCc2ccccc2)c(OC)c1` [VVZ-014], the inhibition at 10 µM stood at 93.6% at 5HT2A (setting [1]) and 75% at GlyT2 (setting [2]).

With `COc1ccc(C(CNC(=O)c2cc(OC)c(OCc3ccccc3)c(OC)c2)N2CCCC2)cc1` (stereo not shown) [VVZ-015], the inhibition at 10 µM is 57% on 5HT2A (setting [1]) and 108% on GlyT2 (setting [2]).

For `COc1cc(C(=O)NCC2(N(C)C)CCC(F)(F)CC2)cc(OC)c1OCc1ccccc1` [VVZ-016], the values for the inhibition at 10 µM at 5HT2A (setting [3]) and at GlyT2 were 97.5% and 109%, respectively.

On to `COc1cc(C(=O)NCC(c2ccccc2)N2CCOCC2)cc(OC)c1OCc1ccccc1` (stereo not shown) [VVZ-018], for which the inhibition at 10 µM at 5HT2A (setting [3]) is 70.7%; at GlyT2, 76.8%.

On to `COc1cc(C(=O)NCC(c2ccccc2)N(C)C)cc(OC)c1OCc1ccccc1` (stereo not shown) [VVZ-020], for which the results for the inhibition at 10 µM at 5HT2A (setting [3]) and on GlyT2 were 94.1% and 103%, respectively.

With `COc1cc(C(=O)NCC2(N(C)C)CC=C(F)CC2)cc(OC)c1OCc1ccccc1` (stereo not shown) [VVZ-028], the values for the inhibition at 10 µM at 5HT2A (setting [3]) and on GlyT2 (setting [2]) were 93.9% and 87.9%, respectively.

For `CCCCOc1c(OC)cc(C(=O)NC[C@H]2CCCN2CC)cc1OC` [VVZ-029], the inhibition at 10 µM came to 71.3% at 5HT2A (setting [1]) and 46% on GlyT2 (setting [2]).

With `CCCCOc1c(OC)cc(C(=O)NCC(c2ccccc2)N(C)C)cc1OC` (stereo not shown) [VVZ-033], the inhibition at 10 µM on 5HT2A (setting [3]) came out at 97.1%; at GlyT2 it was 105%.

With `COc1cc(C(=O)NCC(c2ccccc2)N2CCCC2)cc(OC)c1OCc1ccccc1` (stereo not shown) [VVZ-035], the inhibition at 10 µM was determined as 101% at 5HT2A (setting [1]) and 84.8% at GlyT2 (setting [2]).

As to `COc1cc(C(=O)NCC2(N(C)C)CCOCC2)cc(OC)c1OCc1ccccc1` [VVZ-036], the inhibition at 10 µM on 5HT2A (setting [3]) is 66.1%; at GlyT2 it was 103%.

Consider `COc1cc(C(=O)NCC2(N(C)C)CCCCC2)cc(OC)c1OCc1ccccc1` [VVZ-037], for which the inhibition at 10 µM at 5HT2A (setting [3]) came to 99.8%; on GlyT2, 100%.

Regarding `O=C(c1cccc(C(F)(F)F)c1)N1CCN(CCc2ccccc2)CC1` [VVZ-042], the inhibition at 10 µM at 5HT2A (setting [1]) amounted to 107%; on GlyT2 (setting [2]), 34.4%.

With `Cc1cc(C(=O)NCC(c2ccccc2)N(C)C)cc(C)c1OCc1ccccc1` (stereo not shown) [VVZ-046], the values for the inhibition at 10 µM at 5HT2A (setting [3]) and on GlyT2 were 54.2% and 113%, respectively.

Take `COc1cc(N)c(Cl)cc1C(=O)N[C@H]1CN2CCC1CC2` [VVZ-047]: the inhibition at 10 µM at 5HT2A (setting [1]) came out at 78.8%; on GlyT2 (setting [2]), 23.4%.

In the case of `CCN(C)C1(CNC(=O)c2cc(OC)c(OCc3ccccc3)c(OC)c2)CC=C(F)CC1` (stereo not shown) [VVZ-050], the inhibition at 10 µM was found to be 108% on 5HT2A (setting [1]) and 117% at GlyT2 (setting [2]).

In the case of `CN(C)C(CNC(=O)c1ccc(OCc2ccccc2)cc1)c1ccccc1` (stereo not shown) [VVZ-051], the inhibition at 10 µM on 5HT2A (setting [3]) is 95%; at GlyT2, 110%.

The record behind these values is US9359346B2, “Benzamide derivative and use thereof” (VIVOZON, INC., priority 2011, dated 2016).
